Experimental data from PMC10338470, “Phase 1 study of GSK3368715, a type I PRMT inhibitor, in patients with advanced solid tumors” (British Journal of Cancer, 2023).
“And” between values parts separate entries of the source, which are not always exact repeats. Equal entries are not always repeated. Marks after values point to notes of the source that are not given here.

Test: Phase 1 safety: adverse events, dose-limiting toxicities, thromboembolic events (NCI-CTCAE v5.0)
Type: in vivo, human
Experimental: The study was approved by the ethics committee at every participating institution and was conducted according to the recommendations of Good Clinical Practice and the Declaration of Helsinki. All patients provided written informed consent to participate in the study.
Part 1 of this study included a dose-escalation cohort to assess the incidence of dose-limiting toxicities (DLTs) and adverse events, and a PK/PD cohort to characterize the PK/PD profile of GSK3368715 (Fig. 1). A food-effect cohort and a second study phase (part 2) to assess the preliminary clinical activity of GSK3368715 were also planned.
For each dosing group in the dose-escalation cohort, GSK3368715 was administered on day 1, no treatment was administered on days 2 and 3 (to characterize single-dose PK), and daily dosing continued thereafter until disease progression, unacceptable toxicity, or withdrawal of consent. Study treatment was dosed at approximately the same time of day (±4 h), with no food for 1 h before and 2 h after each dose.
The study resumed under a protocol amendment with the PK/PD cohort starting at a daily dose of 100 mg, and dose escalation was limited to 50-mg increments. The incidence and frequency of TEEs were added to the DLT criteria (grade 2 TEE requiring systemic anticoagulation or ≥grade 3 TEE) with extended monitoring to 8 weeks or until study discontinuation, whichever occurred first. Further, eligibility criteria were modified to exclude patients at high risk of thrombosis (ie, Khorana score ≥3 or prior medical history of TEE). Patients with a Khorana score of 2 were considered for prophylactic anticoagulation if deemed appropriate by the investigator. Khorana score is a risk assessment model based on clinical and laboratory parameters to classify the risk for chemotherapy-associated venous thromboembolism (Supplemental Table 2).
Adverse events were coded using the standard MedDRA groupings and graded according to NCI-CTCAE version 5.0. Clinical chemistry, urinalysis, and coagulation tests were performed predose on days 1, 8, 15, 22, and weekly thereafter. Tumor imaging occurred every 8 weeks until week 33, and then every 16 weeks thereafter.
The Neuenschwander Continual Reassessment Method dose-escalation design has been previously described. […] Additionally, following the protocol amendment, dose escalations were limited to 50-mg increments.
Adverse events and DLTs were summarized descriptively by dose cohort. Pharmacokinetic parameters of GSK3368715 and its metabolites (GSK3963583 and GSK3983164) were estimated in the PK/PD population (all participants for whom a PK sample was obtained) using a noncompartmental analysis model (WinNonlin version 8.1) and summarized descriptively. Best overall response as per RECIST 1.1 was summarized descriptively by dose cohort. Levels of tumor cell and plasma pharmacodynamic biomarkers were also summarized descriptively.

CCOCC1(COCC)CCC(c2[nH]ncc2CN(C)CCNC)CC1 [GSK3368715]
Grade 3 TEE events: 8
AE: Anemia (50 mg (n = 3)): 1 (33) n (%)
AE: Diarrhea (50 mg (n = 3)): 1 (33) n (%)
AE: Dyspnea (50 mg (n = 3)): 1 (33) n (%)
AE: Fatigue (50 mg (n = 3)): 1 (33) n (%)
AE: Nausea (50 mg (n = 3)): 2 (67) n (%)
AE: Neutrophil count decreased (50 mg (n = 3)): 0 n (%)
AE: Pulmonary embolism (50 mg (n = 3)): 0 n (%)
AE: Pyrexia (50 mg (n = 3)): 1 (33) n (%)
AE: Vomiting (50 mg (n = 3)): 2 (67) n (%)
Any AE (all AEs and all grades) (50 mg (n = 3)): 3 (100) n (%)
GSK3368715-related Grade 3 AE: Aortic thrombosis (50 mg (n = 3)): 0 n (%)
GSK3368715-related Grade 3 AE: Atrial fibrillation (50 mg (n = 3)): 0 n (%)
GSK3368715-related Grade 3 AE: Deep vein thrombosis (50 mg (n = 3)): 0 n (%)
GSK3368715-related Grade 3 AE: Neutrophil count decreased (50 mg (n = 3)): 0 n (%)
GSK3368715-related Grade 4 AE: Lymphocyte count decreased (50 mg (n = 3)): 0 n (%)
GSK3368715-related Grade 4 AE: Platelet count decreased (50 mg (n = 3)): 0 n (%)
Dose-limiting toxicities (DLTs) (50 mg dose group): no DLTs
Thromboembolic event grade: Portal vein thrombosis (50 mg, patient with cholangiocarcinoma): 2
AE: Anemia (100 mg (n = 16)): 6 (38)^b n (%)
AE: Diarrhea (100 mg (n = 16)): 5 (31)^b n (%)
AE: Dyspnea (100 mg (n = 16)): 2 (13) n (%)
AE: Fatigue (100 mg (n = 16)): 6 (38) n (%)
AE: Nausea (100 mg (n = 16)): 3 (19) n (%)
AE: Neutrophil count decreased (100 mg (n = 16)): 1 (6)^d,e n (%)
AE: Pulmonary embolism (100 mg (n = 16)): 2 (13)^c n (%)
AE: Pyrexia (100 mg (n = 16)): 5 (31) n (%)
AE: Vomiting (100 mg (n = 16)): 2 (13) n (%)
Any AE (all AEs and all grades) (100 mg (n = 16)): 15 (94) n (%)
GSK3368715-related Grade 3 AE: Aortic thrombosis (100 mg (n = 16)): 0 n (%)
GSK3368715-related Grade 3 AE: Atrial fibrillation (100 mg (n = 16)): 0 n (%)
GSK3368715-related Grade 3 AE: Deep vein thrombosis (100 mg (n = 16)): 0 n (%)
GSK3368715-related Grade 3 AE: Neutrophil count decreased (100 mg (n = 16)): 1 (6)^e n (%)
GSK3368715-related Grade 4 AE: Lymphocyte count decreased (100 mg (n = 16)): 0 n (%)
GSK3368715-related Grade 4 AE: Platelet count decreased (100 mg (n = 16)): 0 n (%)
Thromboembolic event grade: Pulmonary embolism (100 mg, patient with head and neck squamous cell carcinoma, study drug withdrawn): 2
Thromboembolic event grade: Pulmonary embolism (100 mg, patient with pancreas adenocarcinoma): 3
Grade 5 pulmonary embolism, number (200 mg): 1
AE: Anemia (200 mg (n = 12)): 2 (17) n (%)
AE: Diarrhea (200 mg (n = 12)): 1 (8) n (%)
AE: Dyspnea (200 mg (n = 12)): 1 (8) n (%)
AE: Fatigue (200 mg (n = 12)): 1 (8) n (%)
AE: Nausea (200 mg (n = 12)): 4 (33) n (%)
AE: Neutrophil count decreased (200 mg (n = 12)): 3 (25) n (%)
AE: Pyrexia (200 mg (n = 12)): 0 n (%)
AE: Vomiting (200 mg (n = 12)): 3 (25) n (%)
Any AE (all AEs and all grades) (200 mg (n = 12)): 12 (100) n (%)
GSK3368715-related Grade 3 AE: Aortic thrombosis (200 mg (n = 12)): 1 (8)^b,g n (%)
GSK3368715-related Grade 3 AE: Atrial fibrillation (200 mg (n = 12)): 1 (8)^g n (%)
GSK3368715-related Grade 3 AE: Deep vein thrombosis (200 mg (n = 12)): 1 (8) n (%)
GSK3368715-related Grade 3 AE: Neutrophil count decreased (200 mg (n = 12)): 0 n (%)
GSK3368715-related Grade 4 AE: Lymphocyte count decreased (200 mg (n = 12)): 1 (8)^b n (%)
GSK3368715-related Grade 4 AE: Platelet count decreased (200 mg (n = 12)): 1 (8)^b,g n (%)
Thromboembolic event grade: Pulmonary embolism (200 mg, patient with epithelioid hemangioendothelioma): 3
Thromboembolic event grade: Pulmonary embolism (200 mg, patient with mucoepidermoid carcinoma of parotid): 3
Thromboembolic event grade: Pulmonary embolism (200 mg, patient with pancreas adenocarcinoma mucinous, fatal): 5
Participants with grade 2 portal vein thrombosis (50-mg dose group): 1
Dose-limiting toxicities (DLTs) (100-mg dose group): no DLTs
Patients with grade 3 decrease in neutrophil count leading to dose reduction (100-mg dose group): 1 patient
Pulmonary embolisms reported (1 grade 2, 1 grade 3) (100-mg dose group): 2
Grade 3 aortic thrombosis events (200-mg dose group): 1
Grade 3 deep vein thrombosis events (200-mg dose group): 1
Grade 3 portal vein thrombosis events (200-mg dose group): 2
Grade 3 pulmonary embolism events (200-mg dose group): 4
Patients with grade 3 aortic thrombosis (200-mg dose group): 1 patient
Patients with grade 3 atrial fibrillation (200-mg dose group): 1 patient
Patients with grade 3 deep vein thrombosis (200-mg dose group): 1 patient
Patients with grade 4 decrease in lymphocyte count (200-mg dose group): 1 patient
Patients with grade 4 decrease in platelet count (200-mg dose group): 2 patients
Patients with dose-limiting toxicities (DLTs) (200-mg dose group (n = 12), aortic thrombosis, atrial fibrillation, decrease in platelet count): 25%
Fatal (grade 5) SAEs (200-mg dose group, PE and intracranial hemorrhage): 2
AE: Anemia (Total (N = 31)): 9 [29%] n (%) and 9 (29) n (%)
AE: Diarrhea (Total (N = 31)): 7 (23) n (%)
AE: Dyspnea (Total (N = 31)): 4 (13) n (%)
AE: Fatigue (Total (N = 31)): 8 [26%] n (%) and 8 (26) n (%)
AE: Nausea (Total (N = 31)): 9 [29%] n (%) and 9 (29) n (%)
AE: Neutrophil count decreased (Total (N = 31)): 4 (13) n (%)
AE: Pyrexia (Total (N = 31)): 6 (19) n (%)
AE: Vomiting (Total (N = 31)): 7 (23) n (%)
Any AE (all AEs and all grades) (Total (N = 31)): 30 [97%] n (%) and 30 (97) n (%)
GSK3368715-related AEs by maximum grade: Grade 3 (Total (N = 31)): 4 (13) n (%)
GSK3368715-related AEs by maximum grade: Grade 4 (Total (N = 31)): 2 (6) n (%)
Number of grade 3 TEEs (across dose groups (abstract)): 8
Patients experiencing thromboembolic events (TEEs) (across dose groups, N = 31, 95% confidence interval 14–48%): 29%
Number of thromboembolic events (TEEs) (across dose groups, in 9 participants): 12
Changes from baseline for clinical chemistry, hematology, urinalysis, or echocardiograms (ECGs) (all dose groups): No clinically significant trends
Patients who discontinued due to a DLT (all dose groups, N = 31): 3
Patients who discontinued due to an AE (all dose groups, N = 31): 5 patients
Patients with ≥1 grade 3 or grade 4 treatment emergent AEs (all dose groups, N = 31): 52%
Patients with ≥1 serious AE (SAE) (all dose groups, N = 31): 39%
